Test results as given in patent publication US8901118B2, “Compounds and methods for kinase modulation, and indications therefor” (Plexxikon Inc., priority 2010, dated 2014).
pIC50: −log10 of the molar value.

Experiments:
BCR-KIT BaF3 cells = biological target: T1, BCR-KIT BaF3 cells (Homo sapiens, UniProt P10721); assay: BaF3 BCR-KIT cell proliferation assay (ATPlite); assay type: cell-based; details: read-out: Inhibition of Cell Proliferation IC50, BCR/BaF3 Kit
T1 construct: fused on or other part: P11274 (Breakpoint cluster region protein)
Outline: (§1)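 Cells are plated overnight: BaF3 at 10,000/well in G418 medium without WEHI/IL-3, MV-4-11 at 25,000/well in IMDM with 10% FBS. An 8-point 1:3 compound titration (10 μM top) is then added, and plates are incubated 3 days at 37 °C before ATPlite readout and IC50 determination.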

BCR-NTRK1 BaF3 cells = biological target: T2, BCR-NTRK1 BaF3 cells (Homo sapiens, UniProt P04629); assay: BaF3 BCR-NTRK1 cell proliferation assay (ATPlite); assay type: cell-based; details: read-out: Inhibition of Cell Proliferation IC50, BCR/BaF3 TrkA
T2 construct: fused on or other part: P11274 (Breakpoint cluster region protein)
Outline: as §1

BCR-NTRK3 BaF3 cells = biological target: T3, BCR-NTRK3 BaF3 cells (Homo sapiens, UniProt Q16288); assay: BaF3 BCR-NTRK3 cell proliferation assay (ATPlite); assay type: cell-based; details: read-out: Inhibition of Cell Proliferation IC50, BCR/BaF3 TrkC
T3 construct: fused on or other part: P11274 (Breakpoint cluster region protein)
Outline: as §1

SKNSH cells = assay: SKNSH (human neuroblastoma) cell proliferation assay (ATPlite); assay type: cell-based; details: SK-N-SH, read-out: Inhibition of Cell Proliferation IC50, SKNSH
Outline: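 Fms/Trk inhibitor efficacy was tested by proliferation of SKNSH neuroblastoma cells. After 3 days of compound exposure at 37° C. in 5% CO2, 20 μL per well of ATPlite 1 step reagent was added, plates sat 10 minutes at room temperature, and luminescence, proportional to cell number, was read on a Safire reader to derive IC50.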

CYP2C9 = CYP2C9 (Homo sapiens, UniProt P11712); assay: CYP2C9 inhibition (fluorescent substrate MFC); assay type: in vitro ADME; details: read-out: Cyp IC50 2C9
Outline: (§2)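 IC50 derives from metabolite fluorescence against compound concentration, read at excitation 409 nm and emission 460 nm for CYP1A2/2C19 or 530 nm for CYP2C9/2D6. Incubations ran at 37° C for 15 min (1A2), 45 min (2C9) or 30 min (2C19, 2D6), after serial dilution into NADPH cofactor mix and 10 min preincubation.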

CYP2D6 = CYP2D6 (Homo sapiens, UniProt P10635); assay: CYP2D6 inhibition (fluorescent substrate AMMC); assay type: in vitro ADME; details: read-out: Cyp IC50 2D6
Outline: as §2

CYP3A4(BFC) = CYP3A4(BFC) (Homo sapiens, UniProt P08684); assay: CYP3A4(BFC) inhibition; assay type: in vitro ADME; details: CYP3A4, substrate BFC; read-out: Cyp IC50 3A4(BFC)
Outline: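 This fluorescence assay tracks how test compounds reduce CYP3A4 turnover of BFC, with enzyme and substrate from BD Biosciences. A 10-point 1:1 dilution series in cofactor mix (1.3% NADPH Regeneration Solution A, 1.04% Solution B, 5% acetonitrile, 0.05% DMSO) was dispensed at 10 μL into 384 well plates, preincubated 10 minutes at 37° C, then incubated 30 min and read on a Tecan Safire 2.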

T1 sequence (P10721 589-937): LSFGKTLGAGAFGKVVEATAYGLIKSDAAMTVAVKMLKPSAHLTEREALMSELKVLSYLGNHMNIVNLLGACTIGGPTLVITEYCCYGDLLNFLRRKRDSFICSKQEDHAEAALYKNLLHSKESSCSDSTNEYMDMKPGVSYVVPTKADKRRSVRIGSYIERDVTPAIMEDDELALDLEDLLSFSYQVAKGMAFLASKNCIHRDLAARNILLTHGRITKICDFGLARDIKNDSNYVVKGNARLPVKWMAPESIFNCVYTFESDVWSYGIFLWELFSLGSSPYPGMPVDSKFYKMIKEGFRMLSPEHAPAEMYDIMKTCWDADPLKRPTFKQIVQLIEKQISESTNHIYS
T3 sequence (Q16288 whole entry, the tested form may be a part): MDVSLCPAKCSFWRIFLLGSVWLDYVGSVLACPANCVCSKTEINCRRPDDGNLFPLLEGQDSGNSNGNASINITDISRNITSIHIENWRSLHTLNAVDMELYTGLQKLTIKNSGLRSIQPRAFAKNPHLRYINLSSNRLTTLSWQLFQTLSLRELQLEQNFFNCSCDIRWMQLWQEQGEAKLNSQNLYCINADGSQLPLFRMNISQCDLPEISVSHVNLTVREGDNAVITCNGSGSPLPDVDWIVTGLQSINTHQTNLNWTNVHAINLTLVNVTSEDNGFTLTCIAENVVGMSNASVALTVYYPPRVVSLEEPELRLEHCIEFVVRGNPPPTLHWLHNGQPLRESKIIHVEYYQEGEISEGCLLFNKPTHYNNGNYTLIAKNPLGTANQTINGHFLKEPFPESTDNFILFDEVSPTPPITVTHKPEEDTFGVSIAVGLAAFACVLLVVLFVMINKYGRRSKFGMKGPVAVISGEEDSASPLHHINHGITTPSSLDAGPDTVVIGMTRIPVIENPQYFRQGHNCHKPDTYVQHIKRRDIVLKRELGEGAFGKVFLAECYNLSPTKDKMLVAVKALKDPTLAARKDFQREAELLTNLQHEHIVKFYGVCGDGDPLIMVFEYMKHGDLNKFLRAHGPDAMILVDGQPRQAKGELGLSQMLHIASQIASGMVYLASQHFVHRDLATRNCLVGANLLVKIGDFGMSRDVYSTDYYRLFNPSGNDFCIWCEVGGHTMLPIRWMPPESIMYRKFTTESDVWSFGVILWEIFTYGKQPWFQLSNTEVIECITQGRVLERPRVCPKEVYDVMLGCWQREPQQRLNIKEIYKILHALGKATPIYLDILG
CYP3A4(BFC), sequence (P08684 whole entry): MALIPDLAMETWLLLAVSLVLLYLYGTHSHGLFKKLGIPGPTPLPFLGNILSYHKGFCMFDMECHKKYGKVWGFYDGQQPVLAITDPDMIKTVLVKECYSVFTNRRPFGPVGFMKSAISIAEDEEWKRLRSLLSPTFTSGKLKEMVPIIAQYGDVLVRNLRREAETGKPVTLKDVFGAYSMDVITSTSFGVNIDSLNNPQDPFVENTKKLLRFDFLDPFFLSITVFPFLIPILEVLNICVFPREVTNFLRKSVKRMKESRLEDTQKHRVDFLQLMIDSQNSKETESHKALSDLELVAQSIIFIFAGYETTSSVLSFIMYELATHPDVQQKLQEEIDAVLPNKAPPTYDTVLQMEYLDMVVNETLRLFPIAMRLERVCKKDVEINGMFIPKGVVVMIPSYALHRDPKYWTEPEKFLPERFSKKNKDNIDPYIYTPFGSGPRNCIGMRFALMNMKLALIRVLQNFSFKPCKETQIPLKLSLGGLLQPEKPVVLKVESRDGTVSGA
CYP2C9, sequence (P11712 whole entry): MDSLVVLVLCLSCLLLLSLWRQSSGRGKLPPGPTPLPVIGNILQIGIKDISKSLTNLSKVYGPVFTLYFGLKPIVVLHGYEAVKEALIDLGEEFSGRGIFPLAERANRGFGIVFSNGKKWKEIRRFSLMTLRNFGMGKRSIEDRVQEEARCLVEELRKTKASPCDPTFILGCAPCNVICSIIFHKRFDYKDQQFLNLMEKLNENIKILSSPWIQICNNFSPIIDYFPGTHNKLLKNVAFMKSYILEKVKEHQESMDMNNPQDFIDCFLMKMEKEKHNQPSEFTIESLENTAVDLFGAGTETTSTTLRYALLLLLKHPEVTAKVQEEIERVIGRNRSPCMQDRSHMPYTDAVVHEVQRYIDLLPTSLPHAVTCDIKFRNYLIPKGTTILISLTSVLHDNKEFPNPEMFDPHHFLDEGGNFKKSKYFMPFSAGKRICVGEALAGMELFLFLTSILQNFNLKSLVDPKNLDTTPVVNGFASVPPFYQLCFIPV
T2 sequence (P04629 510-781): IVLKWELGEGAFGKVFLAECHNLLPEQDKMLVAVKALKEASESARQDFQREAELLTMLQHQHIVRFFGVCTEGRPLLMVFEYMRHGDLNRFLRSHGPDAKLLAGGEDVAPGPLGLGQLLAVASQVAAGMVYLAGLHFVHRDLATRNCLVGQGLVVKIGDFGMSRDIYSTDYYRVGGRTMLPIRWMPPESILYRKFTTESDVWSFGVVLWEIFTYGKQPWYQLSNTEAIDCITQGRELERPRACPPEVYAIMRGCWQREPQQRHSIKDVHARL
CYP2D6, sequence (P10635 whole entry): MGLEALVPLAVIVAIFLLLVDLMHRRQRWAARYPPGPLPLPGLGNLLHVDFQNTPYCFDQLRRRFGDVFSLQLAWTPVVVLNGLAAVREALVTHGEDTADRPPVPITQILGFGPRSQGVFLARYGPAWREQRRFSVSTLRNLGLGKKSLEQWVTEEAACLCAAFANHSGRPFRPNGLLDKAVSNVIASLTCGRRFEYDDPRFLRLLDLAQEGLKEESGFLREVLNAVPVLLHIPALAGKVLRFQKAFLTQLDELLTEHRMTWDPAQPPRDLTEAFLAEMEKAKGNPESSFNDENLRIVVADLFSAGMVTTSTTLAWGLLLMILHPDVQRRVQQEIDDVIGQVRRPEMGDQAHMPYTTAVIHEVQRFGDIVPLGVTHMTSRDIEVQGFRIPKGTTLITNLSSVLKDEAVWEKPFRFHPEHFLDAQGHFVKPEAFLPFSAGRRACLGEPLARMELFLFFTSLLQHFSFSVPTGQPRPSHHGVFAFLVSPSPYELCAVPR

Compound	pIC50 (BCR-KIT BaF3 cells)	pIC50 (BCR-NTRK1 BaF3 cells)	pIC50 (BCR-NTRK3 BaF3 cells)	pIC50 (SKNSH cells)	pIC50 (CYP2C9)	pIC50 (CYP2D6)	pIC50 (CYP3A4(BFC))
Cc1cnc2[nH]cc(Cc3ccc(Nc4ccc(C)nc4)nc3F)c2c1 [Compound P-3041, [6-Fluoro-5-(5-methyl-1H-pyrrolo[2,3-b]pyridin-3-ylmethyl)-pyridin-2-yl]-(6-methyl-pyridin-3-yl)-amine]	> 6.00	> 6.00	> 7.00	< 6.00	< 5.00	< 5.00	5.00 to 5.30
COc1ncnc2[nH]cc(Cc3ccc(Nc4ccc(C5CC5)nc4)nc3F)c12 [Compound P-4004, (6-Cyclopropyl-pyridin-3-yl)-[6-fluoro-5-(4-methoxy-7H-pyrrolo[2,3-d]pyrimidin-5-ylmethyl)-pyridin-2-yl]-amine]	> 7.00	> 8.00	> 8.00	> 6.00	< 5.00	< 5.00	< 5.00
COc1ncnc2[nH]cc(Cc3ccc(Nc4ccc(C)nc4)nc3F)c12 [Compound P-4010, [6-Fluoro-5-(4-methoxy-7H-pyrrolo[2,3-d]pyrimidin-5-ylmethyl)-pyridin-2-yl]-(6-methyl-pyridin-3-yl)-amine]	> 6.00	> 6.00	> 7.00	> 6.00	< 5.00	< 5.00	< 5.00
COCCOc1ncnc2[nH]cc(Cc3ccc(Nc4ccc(C)nc4)nc3F)c12 [Compound P-4015, {6-Fluoro-5-[4-(2-methoxy-ethoxy)-7H-pyrrolo[2,3-d]pyrimidin-5-ylmethyl]-pyridin-2-yl}-(6-methyl-pyridin-3-yl)-amine]	< 6.00	> 6.00	> 7.00	< 6.00	< 5.00	< 5.00	< 5.00
CCOc1ccc(Nc2ccc(Cc3c[nH]c4ncc(C)cc34)c(F)n2)cn1 [Compound P-3039, (6-ethoxy-pyridin-3-yl)-[6-fluoro-5-(5-methyl-1H-pyrrolo[2,3-b]pyridin-3-ylmethyl)-pyridin-2-yl]-amine]	> 6.00	> 6.00	> 7.00	< 6.00	< 5.00	< 5.00	< 5.00
Fc1nc(NC2CCC(F)(F)CC2)ccc1Cc1c[nH]c2ncnc(NC3CC3)c12 [Compound P-4129, N-cyclopropyl-5-[[6-[(4,4-difluorocyclohexyl)amino]-2-fluoro-3-pyridyl]methyl]-7H-pyrrolo[2,3-d]pyrimidin-4-amine]	> 6.00	> 6.00	> 7.00	< 5.00	5.00 to 5.30	5.00 to 5.30	> 5.30
COc1ccc(Nc2ccc(Cc3c[nH]c4ncnc(OC)c34)c(F)n2)cn1 [Compound P-4001, [6-Fluoro-5-(4-methoxy-7H-pyrrolo[2,3-d]pyrimidin-5-ylmethyl)-pyridin-2-yl]-(6-methoxy-pyridin-3-yl)-amine]	> 6.00	> 7.00	> 8.00	> 6.00	< 5.00	< 5.00	< 5.00
Fc1nc(Nc2ccc(C3CC3)nc2)ccc1Cc1c[nH]c2ncnc(NCC(F)(F)F)c12 [Compound P-4130, 5-[[6-[(6-cyclopropyl-3-pyridyl)amino]-2-fluoro-3-pyridyl]methyl]-N-(2,2,2-trifluoroethyl)-7H-pyrrolo[2,3-d]pyrimidin-4-amine]	< 6.00	> 7.00	> 8.00	> 5.00	< 5.00	< 5.00	> 5.30
Cc1cnc2[nH]cc(Cc3cnc(Nc4cc(OC(C)C)n[nH]4)nc3)c2c1 [Compound P-3038, (5-Isopropoxy-2H-pyrazol-3-yl)-[5-(5-methyl-1H-pyrrolo[2,3-b]pyridin-3-ylmethyl)-pyrimidin-2-yl]-amine]	> 6.00	> 6.00	> 6.00	< 4.60			
